{"source": "paper PMC9911596", "about": "(Nature Communications, 2023)", "key": {"[1]": {"molecular_target": "T1, Vtc1/Vtc3/Vtc4 complex (VTC complex) (Saccharomyces cerevisiae, UniProt P47075+Q02725, P47075:K300A/P47075:R302A/P47075:K320A)", "T1 construct": "full-length subunits co-expressed in Expi293F; Vtc1 C-terminal HA, Vtc3 N-terminal 3xFlag, Vtc4 C-terminal 2xStrep; detergent-purified; 3:1:1 pentamer; with Vacuolar transporter chaperone complex subunit 1", "T1 sequence (P47075 1-721 K300A/R302A/K320A)": "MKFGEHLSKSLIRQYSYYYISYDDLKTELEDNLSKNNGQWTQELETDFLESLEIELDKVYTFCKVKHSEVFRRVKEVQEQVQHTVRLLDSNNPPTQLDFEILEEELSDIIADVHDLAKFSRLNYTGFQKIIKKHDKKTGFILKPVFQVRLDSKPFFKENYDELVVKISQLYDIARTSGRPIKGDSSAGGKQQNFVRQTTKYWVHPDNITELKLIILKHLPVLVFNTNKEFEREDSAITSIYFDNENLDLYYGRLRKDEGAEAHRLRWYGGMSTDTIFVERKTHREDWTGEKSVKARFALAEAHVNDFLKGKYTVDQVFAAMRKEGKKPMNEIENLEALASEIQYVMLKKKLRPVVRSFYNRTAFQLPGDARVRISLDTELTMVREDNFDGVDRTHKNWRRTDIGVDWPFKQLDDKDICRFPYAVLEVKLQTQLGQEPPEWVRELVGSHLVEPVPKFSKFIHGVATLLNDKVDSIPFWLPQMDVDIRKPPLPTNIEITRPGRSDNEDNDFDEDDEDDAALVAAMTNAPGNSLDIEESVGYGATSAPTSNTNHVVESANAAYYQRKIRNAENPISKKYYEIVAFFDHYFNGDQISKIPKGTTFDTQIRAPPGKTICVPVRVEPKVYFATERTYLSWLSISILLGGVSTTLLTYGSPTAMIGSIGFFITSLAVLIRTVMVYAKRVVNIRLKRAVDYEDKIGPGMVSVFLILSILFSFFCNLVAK", "T1 sequence (Q02725 1-835)": "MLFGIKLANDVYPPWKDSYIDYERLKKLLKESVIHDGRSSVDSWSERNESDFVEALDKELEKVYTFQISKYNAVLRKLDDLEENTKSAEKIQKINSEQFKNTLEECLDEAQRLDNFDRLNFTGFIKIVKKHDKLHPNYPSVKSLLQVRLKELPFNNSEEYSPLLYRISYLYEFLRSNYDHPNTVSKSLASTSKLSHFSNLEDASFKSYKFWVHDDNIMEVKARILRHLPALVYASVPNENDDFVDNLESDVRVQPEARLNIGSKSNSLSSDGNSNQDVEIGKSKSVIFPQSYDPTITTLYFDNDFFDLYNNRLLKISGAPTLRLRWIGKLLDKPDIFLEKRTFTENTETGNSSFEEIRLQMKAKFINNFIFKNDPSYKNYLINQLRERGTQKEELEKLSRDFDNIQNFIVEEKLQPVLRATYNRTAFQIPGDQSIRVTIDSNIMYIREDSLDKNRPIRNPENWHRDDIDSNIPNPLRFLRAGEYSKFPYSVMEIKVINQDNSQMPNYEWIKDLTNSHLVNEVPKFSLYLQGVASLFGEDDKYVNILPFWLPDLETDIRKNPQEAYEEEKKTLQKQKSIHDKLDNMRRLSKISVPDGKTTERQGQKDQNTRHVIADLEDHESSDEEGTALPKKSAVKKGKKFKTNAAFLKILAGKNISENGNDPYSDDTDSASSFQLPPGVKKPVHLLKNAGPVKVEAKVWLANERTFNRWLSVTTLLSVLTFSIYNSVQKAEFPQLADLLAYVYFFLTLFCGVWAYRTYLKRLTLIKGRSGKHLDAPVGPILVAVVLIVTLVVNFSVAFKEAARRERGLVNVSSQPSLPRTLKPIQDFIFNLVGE", "T1 sequence (P40046 2-129 partner)": "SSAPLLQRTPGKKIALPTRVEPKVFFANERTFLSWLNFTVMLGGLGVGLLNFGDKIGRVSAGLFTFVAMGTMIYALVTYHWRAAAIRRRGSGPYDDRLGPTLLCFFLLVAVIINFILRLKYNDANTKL", "assay": "polyP synthesis, TBE-PAGE", "type": "biochemical", "conditions": "activator; 15 mM ATP, 10 mM MgCl2, 1 mM MnCl2, 0.5 mM pyrophosphate, 27 °C; TTM cleft (second site) mutant"}, "[2]": {"molecular_target": "T2, Vtc1/Vtc3/Vtc4 complex (VTC complex) (Saccharomyces cerevisiae, UniProt P47075+Q02725, P47075:K129A/P47075:K132A/P47075:K136A)", "T2 construct": "full-length subunits co-expressed in Expi293F; Vtc1 C-terminal HA, Vtc3 N-terminal 3xFlag, Vtc4 C-terminal 2xStrep; detergent-purified; 3:1:1 pentamer; with Vacuolar transporter chaperone complex subunit 1", "T2 sequence (P47075 1-721 K129A/K132A/K136A)": "T1 sequence (P47075 1-721 K300A/R302A/K320A) with K129A, K132A, K136A, A300K, A302R, A320K", "T2 sequence (Q02725 1-835)": "T1 sequence (Q02725 1-835)", "T2 sequence (P40046 2-129 partner)": "T1 sequence (P40046 2-129 partner)", "assay": "polyP synthesis, TBE-PAGE", "type": "biochemical", "conditions": "activator; 15 mM ATP, 10 mM MgCl2, 1 mM MnCl2, 0.5 mM pyrophosphate, 27 °C, 4 h; SPX KSC mutant"}}, "note": "Substitutions are numbered along the chain they refer to.", "data": [{"smiles": "O=P(O)(O)O[C@H]1[C@H](OP(=O)(O)O)[C@@H](OP(=O)(O)O)[C@H](OP(=O)(O)O)[C@@H](OP(=O)(O)O)[C@H]1OP(=O)(O)O", "note": "[InsP6]", "values": [{"measurement": "polyP synthesis, TBE-PAGE", "setting": "[1]", "result": "had little impact on InsP6-stimulated polyP synthesis by VTC complex"}, {"measurement": "polyP synthesis, TBE-PAGE", "setting": "[2]", "result": "both reduced InsP6-stimulated polyP synthesis"}]}]}
